The supplement of paper PMC10307832

What was measured:
Test in all cases: relative viability (nuclei count vs DMSO), 5 days (fraction); higher = more cells survive
[1] = compound: CC1(C)CCC(CN2CCN(c3ccc(C(=O)NS(=O)(=O)c4ccc(NCC5CCOCC5)c([N+](=O)[O-])c4)c(Oc4cnc5[nH]ccc5c4)c3)CC2)=C(c2ccc(Cl)cc2)C1 [Venetoclax] + CC(=O)c1c(C)c2cnc(Nc3ccc(N4CCNCC4)cn3)nc2n(C2CCCC2)c1=O [Palbociclib] (partner 0.5 µM)
In short: (§1)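 One day after seeding in 1536-well plates, lung cancer cell lines were dosed by pin tool. Dosing was either single-drug or a fixed anchor-drug dose plus five library-drug doses (not always all listed) in √10 steps. After 5 days, nuclei were stained in one fix-and-stain step and counted on 4× images, and relative viability is the nuclei count of treated wells over that of vehicle wells, given as the median of duplicate plates.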

[2] = compound: CC1(C)CCC(CN2CCN(c3ccc(C(=O)NS(=O)(=O)c4ccc(NCC5CCOCC5)c([N+](=O)[O-])c4)c(Oc4cnc5[nH]ccc5c4)c3)CC2)=C(c2ccc(Cl)cc2)C1 [Venetoclax] + C[C@@H](Oc1cc(-c2cnn(C3CCNCC3)c2)cnc1N)c1c(Cl)ccc(F)c1Cl [Crizotinib] (partner 1 µM)
In short: as §1

[3] = compound: Cn1cnc2c(F)c(Nc3ccc(Br)cc3Cl)c(C(=O)NOCCO)cc21 [Selumetinib] + O=C(CCCCCCC(=O)Nc1ccccc1)NO [Vorinostat] (partner 1 µM)
In short: as §1

[4] = compound: Cn1cnc2c(F)c(Nc3ccc(Br)cc3Cl)c(C(=O)NOCCO)cc21 [Selumetinib] + CC(C)C[C@H](NC(=O)[C@H](Cc1ccccc1)NC(=O)c1cnccn1)B(O)O [Bortezomib] (partner 0.002 µM)
In short: as §1

Row | Cell Line | relative viability ([1]; first compound 0.01 µM) | relative viability ([1]; first compound 0.03162 µM) | relative viability ([1]; first compound 0.1 µM) | relative viability ([1]; first compound 0.3162 µM) | relative viability ([1]; first compound 1 µM) | relative viability ([2]; first compound 0.01 µM) | relative viability ([2]; first compound 0.03162 µM) | relative viability ([2]; first compound 0.1 µM) | relative viability ([2]; first compound 0.3162 µM) | relative viability ([2]; first compound 1 µM) | relative viability ([3]; first compound 0.02 µM) | relative viability ([3]; first compound 0.06325 µM) | relative viability ([3]; first compound 0.2 µM) | relative viability ([3]; first compound 0.6325 µM) | relative viability ([4]; first compound 0.02 µM) | relative viability ([4]; first compound 0.06325 µM) | relative viability ([4]; first compound 0.2 µM) | relative viability ([4]; first compound 0.6325 µM)
1 | HOP-62 | 0.43 | 0.462 | 0.373 | 0.427 | 0.4 | 0.896 | 0.867 | 0.79 | 1.1 | 0.83 | 0.579 | 0.556 | 0.555 | 0.349 | 1.06 | 0.779 | 0.496 | 0.475
2 | LC-2-ad | 0.456 | 0.532 | 0.465 | 0.491 | 0.508 | 0.46 | 0.465 | 0.439 | 0.466 | 0.51 | 0.653 | 0.723 | 0.665 | 0.67 | 1.05 | 1.01 | 0.831 | 0.943
3 | LCLC-97TM1 | 0.231 | 0.217 | 0.202 | 0.208 | 0.212 | – | 0.306 | 0.342 | 0.301 | 0.312 | 0.925 | 0.714 | 0.661 | 0.437 | 0.522 | 0.379 | 0.294 | 0.157
4 | LCLC-103H | 0.518 | 0.479 | 0.491 | 0.437 | 0.428 | 1.05 | 1.2 | 1.04 | 0.985 | 1.05 | 0.811 | 0.768 | 0.712 | 0.691 | 1.01 | 1.06 | 0.993 | 0.978
5 | LOU-NH91 | 0.504 | 0.546 | 0.505 | 0.516 | 0.519 | 0.751 | 0.751 | 0.756 | 0.729 | 0.697 | 0.889 | 0.88 | 0.843 | 0.874 | 0.465 | 0.479 | 0.476 | 0.479
6 | LU99A | 0.377 | 0.465 | 0.384 | 0.39 | 0.427 | 0.555 | 0.587 | 0.576 | 0.586 | 0.526 | 0.521 | 0.472 | 0.476 | 0.501 | 1.35 | 1.05 | 1.18 | 1.37
7 | LXF-289 | 0.624 | 0.592 | 0.631 | 0.556 | 0.552 | 0.832 | 0.816 | 0.776 | 0.798 | 0.702 | 0.734 | 0.668 | 0.595 | 0.661 | 0.934 | 0.891 | 0.8 | 0.748
8 | NCI-H23 | 0.514 | 0.598 | 0.495 | 0.491 | 0.413 | 0.488 | 0.491 | 0.353 | 0.507 | 0.394 | 0.649 | 0.561 | 0.557 | 0.668 | 1.34 | 0.967 | 0.721 | 0.965
9 | NCI-H322M | 0.489 | 0.487 | 0.389 | 0.412 | 0.485 | 0.988 | 0.838 | 0.912 | 0.894 | 0.878 | 0.946 | 0.638 | 0.653 | 0.758 | 1.05 | 1.22 | 1.01 | 0.98
10 | NCI-H441 | 0.218 | 0.27 | 0.241 | 0.2 | 0.18 | 0.845 | 0.976 | 0.745 | 0.679 | 0.71 | 0.843 | 0.868 | 0.783 | 0.778 | 0.658 | 0.345 | 0.544 | 0.506
11 | NCI-H460 | 0.158 | 0.294 | 0.121 | 0.216 | 0.144 | 0.902 | 0.773 | 0.946 | 0.908 | 0.719 | 0.48 | 0.492 | 0.428 | 0.228 | 0.962 | 0.684 | 0.852 | 0.458
12 | NCI-H520 | 0.236 | 0.217 | – | 0.204 | 0.201 | 0.769 | 0.698 | 0.658 | 0.835 | 0.698 | 0.774 | 0.73 | 0.785 | 0.71 | 0.635 | 0.47 | 0.498 | 0.575
13 | NCI-H647 | 0.504 | 0.488 | 0.34 | 0.365 | 0.269 | 0.803 | 1.35 | – | 0.974 | 0.722 | 0.697 | 0.38 | 0.727 | 0.712 | 0.96 | 0.946 | 0.901 | 0.73
14 | NCI-H650 | 0.319 | 0.387 | 0.345 | 0.366 | 0.303 | 0.725 | 0.699 | – | 0.701 | 0.641 | 0.552 | 0.778 | 0.72 | 0.805 | 1.01 | 0.995 | 1.25 | 1.17
15 | NCI-H661 | 0.401 | 0.411 | 0.396 | 0.392 | 0.392 | 0.987 | 1.09 | 1.12 | – | 1.05 | 0.882 | 0.772 | 0.75 | 0.799 | 0.751 | 0.847 | 0.722 | 0.575
16 | NCI-H727 | 0.655 | 0.586 | 0.658 | 0.82 | 0.651 | 0.838 | 0.922 | 0.912 | 0.976 | 0.673 | 1.01 | 0.741 | 0.709 | 0.553 | 0.58 | 0.351 | 0.359 | 0.337
17 | NCI-H838 | 0.236 | 0.212 | 0.217 | 0.208 | 0.2 | 0.815 | 0.854 | 0.8 | 0.88 | 0.795 | 0.644 | 0.54 | 0.654 | 0.636 | 0.695 | 0.59 | 0.679 | 0.513
18 | NCI-H1355 | 0.428 | 0.387 | 0.404 | 0.424 | 0.356 | 1.07 | 1.14 | 1.07 | 0.984 | 1.04 | 0.561 | 0.529 | 0.488 | 0.382 | 1.18 | 1.17 | 0.884 | 0.822
